# Data reported in US20210206817A1, “Metabolically Stable Apelin Analogs in the Treatment of Disease Mediated by the Apelin Receptor” (priority 2014, published 2021).
# Assays:
# [1] = target: T1, rat apelin receptor-EGFP (Rattus norvegicus, UniProt Q9JHG3); assay: Inhibition of forskolin-induced cAMP production (HTRF); type: cell-based
# T1 construct: expressed in transfected cells
# T1 sequence (Q9JHG3 1-377): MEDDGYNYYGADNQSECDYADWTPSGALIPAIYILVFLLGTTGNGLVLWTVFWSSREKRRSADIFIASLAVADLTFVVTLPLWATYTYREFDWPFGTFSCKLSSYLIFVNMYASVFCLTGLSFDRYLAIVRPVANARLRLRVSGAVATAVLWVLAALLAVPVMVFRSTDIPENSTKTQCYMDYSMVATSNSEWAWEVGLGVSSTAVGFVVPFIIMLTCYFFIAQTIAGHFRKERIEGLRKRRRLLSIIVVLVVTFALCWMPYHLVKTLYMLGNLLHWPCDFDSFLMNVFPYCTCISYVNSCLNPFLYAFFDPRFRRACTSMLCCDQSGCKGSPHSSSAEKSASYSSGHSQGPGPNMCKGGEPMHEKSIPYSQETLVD
# Description: cAMP was quantified using the cAMP dynamic 2 assay kit (Cisbio Bioassays, Codolet, France) based on homogeneous time-resolved fluorescence (HTRF) technology. The stimulation was done in the stimulation buffer (HBSS, 5 mM Hepes, 0.1% BSA stabilizer, 1 mM IBMX, pH 7.4). Briefly, 2,000/well CHO cells stably expressing the rat apelin receptor-EGFP were added into 384-well plate and stimulated with 10^−6 M forskolin (FSK) and increasing concentrations (10^−14 to 10^−4 M) of apelins or its analogs for 30 min at room temperature. Cells were then lyzed, and cAMP levels were determined following manufacturer instructions.
# [2] = system: anaesthesized normotensive Wistar rats; assay: Arterial blood pressure after i.v. injection; type: in vivo, rat
# Description: The resulting solution was administered to the rats via a catheter inserted into the right femoral vein, and was immediately followed by 0.2 ml Krebs buffer alone to flush the venous catheter. An additional catheter was inserted into the right femoral artery, as previously described (47), for the monitoring of mean arterial blood pressure (MBP) as previously described (48). The arterial catheter was connected to a COBE CDX III pressure transducer (Phymep, Paris, France) linked to the Maclab system (Phymep, Paris, France). HR measurement was triggered by the blood pressure signal. BP was continuously recorded throughout the experiment. […] Mean AUC for each group were then calculated. Unpaired Student's t test was used to determine whether BP observed in response to substances administered […].) has statistically significant difference.
# [3] = target: T1, rat apelin receptor-EGFP; assay: ERK1/2 phosphorylation (Alphascreen); type: cell-based
# Excerpt: ERK1/2 phosphorylation was then monitored by Alphascreen technology.
# [4] = target: T1, rat apelin receptor-EGFP; assay: [125I]pE13F radioligand binding on CHO membrane preparations
# Description: Crude membrane preparation from CHO stably expressing the wild-type rat apelin receptor-EGFP, were prepared as previously described (39). […] The reaction was stopped by adding ice-cold binding buffer and filtered through glass microfiber filters (Whatman GF/C filters). Radioactivity was counted in Wizard 1470 Wallac gamma counter (Perkin Elmer, Turku, Finland).
# [5] = system: rat aortic rings precontracted by noradrenaline (NA); assay: Isometric tension of aortic rings precontracted by noradrenaline; conditions: 100 μM
# Description: The experiments were performed in rat aortic rings as previously described (39). […] The aortas were cleaned of excess connective tissue and fat and cut into rings of approximately 3-4 mm in length. Special care was taken to avoid damaging the luminal surface of the endothelium. […] One end of the aortic ring was connected to a tissue holder and the other to an isometric force transducer (EMKA Technologies, Paris, France). […] During equilibration period, the rings were washed every 30 min. Then, a first relaxation to acetylcholine (Ach, 10^−4 mol/L) was implemented to check the integrity or the absence of the endothelium in rings precontracted with NA (3×10^−8 mol/L). After rinsing with PSS to baseline tension, rings were equilibrated for 90 min. […] Each concentration of the drug was added at the maximal effect of the precedent concentration. The concentration-response curves were continuously recorded on a PC by means of IOX v 2.4 (EMKA Technologies, Paris) for further analysis (Datanalyst v2.1, EMKA Technologies, Paris).
# [6] = Stability in mouse plasma at 37° C.
# Description: For each compound, the stock solution (100 μM in water) was diluted in plasma to a final incubation concentration of 5 μM. The incubation at 37° C. was stopped respectively at to and 4 h by adding one volume of ice cold acetonitrile containing 0.1% trifluoroacetic acid. The sample was vortexed for 1 min and then centrifuged at 4° C. before LC-MS injection of the supernatant. Analyses were performed on a Kinetex RP-C18 column (2.6 μm, 100 Å, 50×4.6 mm) using a linear gradient (solvent B in solvent A, solvent A: water/0.05% TFA; solvent B: acetonitrile; flow rate of 2 mL·min^−1: detection at 358 nm). The percentage of remaining test compound relative to t0 was measured by monitoring the peak area of the chromatogram.
# [7] = target: T1, rat apelin receptor-EGFP; assay: Apelin receptor-EGFP internalization, confocal microscopy; type: cell-based
# Description: The internalization assay was performed as described previously with CHO cells stably expressing the rat apelin receptor-EGFP (43). […] Cells were then mounted in Aquapolymount (Polysciences, Warrington, Pa., USA) for confocal microscopic analysis (Sec (42) for details).
# [8] = system: rat glomerular arterioles precontracted by Angiotensin II (AngII); assay: Diameter of glomerular arterioles precontracted by angiotensin II
# Description: The left kidney of male rats was prepared for microdissection of arterioles as previously described (44). Glomerular arterioles were isolated under stereomicroscopic observation. The afferent and muscular efferent arterioles were isolated with the glomerulus and identify according their morphology and localization in the inner renal cortex as previously described by Helou et al. […] For these experiments afferent and muscular efferent arterioles were microdissected attached to the gomeruli. […] Arteriolar diameters were measured with Adobe Photoshop CS. Diameters were measured on a distance equal to about 100 μm upstream of the glomerulus and triplicate were performed for each arteriole. Calibration was made using a stage micrometer. The average diameter for each experimental condition was used for statistical analysis.
# [9] = system: water-deprived or euhydrated mice; assay: Plasma AVP after i.c.v. injection (RIA); type: in vivo, mouse
# Description: Animals were killed 1 min after the injection, and trunk blood (0.5-1 ml) was collected in chilled tubes containing 50 μl of 0.3 M EDTA pH 7.4. […] RIA kit (Peninsula Laboratories International Inc, San Carlo, USA).
# [10] = 15 nmol i.v., listed as JFM V-01961
compound,measurement,setting,value
CSCC[C@H](NC(=O)[C@@H]1CCCN1C(=O)CNC(=O)[C@H](CCCCN)NC(=O)[C@H](Cc1c[nH]cn1)NC(=O)[C@H](CO)NC(=O)[C@H](CC(C)C)NC(=O)[C@H](CCCNC(=N)N)NC(=O)[C@@H]1CCCN1C(=O)[C@H](CCCNC(=N)N)NC(=O)[C@H](CCC(N)=O)NC(=O)[C@H](CCCNC(=N)N)NC(=O)[C@H](CCCNC(=N)N)NC(=O)[C@H](Cc1ccccc1)NC(=O)[C@H](CCCCN)NC(=O)CCC(F)(F)C(F)(F)C(F)(F)C(F)(F)C(F)(F)C(F)(F)C(F)(F)C(F)(F)F)C(=O)N1CCC[C@H]1C(=O)N[C@@H](Cc1ccccc1)C(=O)O [JFM V-0196B],IC50,[1],3.13 ± 1.43 nM
same,"duration of the hypotensive effect, fold higher than K17F",[2]; 15 nmol i.v.,27 fold
same,"maximal hypotensive response, fold higher than K17F",[2]; 15 nmol i.v.,9 fold
same,BP decrease at the plateau value after 30 min,"[2]; 15 nmol i.v., after 30 min",21 mmHg
same,"duration of the hypotensive effect, fold higher than K17F",[2]; [10],8 fold
same,"maximal hypotensive response, fold higher than K17F",[2]; [10],6.7 fold
same,time of maximal hypotensive response after injection,[2]; 15 nmol/rat i.v.,10 min
same,Maximal decrease in BP (mmHg),"[2]; Table 5, 15 nmol i.v.",−52 mmHg
same,Time For maximal BP decrease,"[2]; Table 5, 15 nmol i.v.",10 min
same,Time to return to a plateau value,"[2]; Table 5, 15 nmol i.v.",33 min
same,plateau value reached (in brackets),"[2]; Table 5, 15 nmol i.v.",−21 mmHg
same,EC50,[3],0.89 ± 0.61 nM
same,Ki,"[4]; Binding affinity Ki (nM), Table 7, additional experiments vs Table 2",0.08 ± 0.01 nM
same,Ki,"[4]; Ki for the apelin receptor (affinity), competition with [125I]pE13F, CHO membranes",0.2 nM
same,Ki,"[4]; [125I]pE13F binding I (nM), Table 2",0.21 ± 0.27 nM
same,vasorelaxing effect at maximal concentration,[5],60±3%
same,starting peptide remaining after 4 h,"[6]; Table 4, mouse plasma, 37° C., 4 h",100% of starting peptide after 4 h
same,half-life at 5 μM,"[6]; mouse, plasma",> 4 h
same,EC50,[7],0.41 ± 0.16 nM
same,arteriolar diameter after application to Ang II-precontracted arterioles,"[8]; 500 nM, 1 nM Ang II, from 12.97±0.50 μm",13.88±0.45 μm
same,vasorelaxant effect in the presence of L-NAME,"[8]; L-NAME, NO synthase inhibitor",not significantly changed
same,effect on plasma AVP levels in euhydrated mice,"[9]; euhydrated mice, supramaximal dose 1 μg i.c.v.",no effect on plasma AVP levels
same,maximal decrease in AVP release,"[9]; water-deprived mice, 0.01 μg i.c.v.",−75%
